In PMC8147293, “Library of Selenocyanate and Diselenide Derivatives as In Vivo Antichagasic Compounds Targeting Trypanosoma cruzi Mitochondrion” (Pharmaceuticals, 2021):

Legend:
[1] = test system: epimastigotes of T. cruzi Arequipa strain; assay: Screening against extracellular epimastigotes (resazurin); assay type: cell-based, Trypanosoma cruzi; conditions: Trypanosoma cruzi; Table S1; cultured epimastigote form of T. cruzi; read-out: Activity IC50
Protocol: Trypanocidal activity against epimastigotes of T. cruzi Arequipa strain (MHOM/Pe/2011/Arequipa, discrete typing unit V) was tested as previously described. In short, 5 × 10^5 epimastigotes·mL^−1 were treated by adding the tested compounds at a concentration range from 100 to 0.2 µM in 96-well microplates (200 µL·well^−1) for 48 h. Subsequently, resazurin sodium salt (Sigma-Aldrich) was added to be incubated for further 24 h. Finally, the absorbance was measured, and the trypanocidal activity was expressed as the IC50 (inhibitory concentration 50) using GraphPad Prism 6 software. Each compound concentration was tested in triplicate in three independent experiments.

[2] = test system: Mammalian Vero cells; assay: Cytotoxicity test on Vero cells (resazurin); assay type: cell-based; conditions: Chlorocebus sabaeus; Table S1; cultured Vero cells; read-out: Toxicity IC50 Vero cell
Protocol: Mammalian Vero cells (EACC No. 84113001), cultured as previously reported, were used to determine the cytotoxicity of the tested compounds [56]. In short, 1.25 × 10^4 Vero cells·mL^−1 were treated by adding the compounds at a concentration range from 400 to 1 µM in 96-well microplates (200 µL·well^−1) at 37 °C for 48 h. Subsequently, resazurin sodium salt (Sigma-Aldrich) was added to be incubated for further 24 h. Finally, cell viability was determined following the same procedure as described to assess the trypanocidal activity in the epimastigotes. Each compound concentration was tested in triplicate in three independent experiments.

Row | SMILES | IC50 [1] [µM] | IC50 [2] [µM]
1 | N#C[Se]Cc1ccccc1C#N [compound 19] | 29.1 ± 3 | 18.5 ± 0.7
2 | CSc1ccc(C[Se]C#N)cc1 [compound 9] | 11.3 ± 0.7 | 67.3 ± 4.9
3 | O=S(=O)(Nc1ccc([Se][Se]c2ccc(NS(=O)(=O)c3ccccc3F)cc2)cc1)c1ccccc1F [compound 37] | 46.1 ± 3.1 | 39.6 ± 3.1
4 | COc1cc2oc(=O)cc(C[Se]C#N)c2cc1OC [compound 30] | 30.9 ± 1.4 | 109 ± 10.5
5 | c1ccc(C[Se][Se]Cc2ccccc2)cc1 [compound 4] | 35.4 ± 3.6 | 26.8 ± 1.3
6 | N#C[Se]Cc1cc2c(cc1Br)OCO2 [compound 23] | 14.1 ± 0.9 | 38.9 ± 2.1
7 | O=[N+]([O-])c1cccc(C[Se][Se]Cc2cccc([N+](=O)[O-])c2)c1 [compound 18] | 1.5 ± 0.3 | 7.3 ± 1.1
8 | N#C[Se]Cc1nc2ccccc2nc1C[Se]C#N [compound 29] | 32.1 ± 1.1 | 67.4 ± 3.5
9 | N#Cc1ccc(S(=O)(=O)Nc2ccc([Se][Se]c3ccc(NS(=O)(=O)c4ccc(C#N)cc4)cc3)cc2)cc1 [compound 40] | 3.8 ± 0.1 | 16 ± 1.7
10 | N#C[Se]Cc1ccc(C(F)(F)F)cc1 [compound 7] | 34.1 ± 2.6 | 50.5 ± 3.8
11 | Cc1ccc(C[Se][Se]Cc2ccc(C)cc2)cc1 [compound 12] | 19.4 ± 1.5 | 4.9 ± 0.7
12 | N#Cc1cccc(C[Se][Se]Cc2cccc(C#N)c2)c1 [compound 22] | 39.7 ± 2.6 | 29.8 ± 3
13 | N#C[Se]Cc1ccc2ccccc2n1 [compound 27] | 99.5 ± 6.1 | 68.3 ± 6.7
14 | O=[N+]([O-])c1ccc(C[Se][Se]Cc2ccc([N+](=O)[O-])cc2)cc1 [compound 6] | 13.6 ± 0.7 | 28.2 ± 1.1
15 | N#C[Se]Cc1ccccc1 [compound 3] | – | 53.3 ± 2.5
16 | O=S(=O)(Nc1ccc([Se][Se]c2ccc(NS(=O)(=O)c3ccc(Br)cc3)cc2)cc1)c1ccc(Br)cc1 [compound 33] | 10.2 ± 0.8 | 49.7 ± 3.2

Row | SMILES | IC50 [1] [µM] | IC50 [2] [µM]
17 | N#C[Se]Cc1ccc(Br)cc1 [compound 1] | 39.1 ± 2.5 | 68.4 ± 3.7
18 | O=[N+]([O-])c1ccccc1C[Se][Se]Cc1ccccc1[N+](=O)[O-] [compound 16] | 18.4 ± 2.3 | 18.9 ± 2.4
19 | O=S(=O)(Nc1ccc([Se][Se]c2ccc(NS(=O)(=O)c3cccs3)cc2)cc1)c1cccs1 [compound 48] | 1.8 | 15.7 ± 1.1
20 | O=[N+]([O-])c1ccc(S(=O)(=O)Nc2ccc([Se][Se]c3ccc(NS(=O)(=O)c4ccc([N+](=O)[O-])cc4)cc3)cc2)cc1 [compound 39] | 17.1 ± 1.3 | 11.7 ± 2.7
21 | c1cnc2c(C[Se][Se]Cc3cccc4cccnc34)cccc2c1 [compound 26] | 6.7 ± 0.4 | 19.6 ± 1
22 | N#C[Se]Cc1c2ccccc2cc2ccccc12 [compound 28] | 21.4 ± 0.9 | 169 ± 9.7
23 | N#C[Se]CC(=O)C12CC3CC(CC(C3)C1)C2 [compound 31] | 13.2 ± 0.8 | 85.5 ± 4.9
24 | N#Cc1ccc(C[Se][Se]Cc2ccc(C#N)cc2)cc1 [compound 14] | 27.9 ± 2.9 | 8.9 ± 1.5
25 | O=S(=O)(Nc1ccc([Se][Se]c2ccc(NS(=O)(=O)c3ccc4ccccc4c3)cc2)cc1)c1ccc2ccccc2c1 [compound 44] | 5.6 ± 1.1 | 30.8 ± 2.2
26 | N#C[Se]Cc1cccc2cccnc12 [compound 25] | 10.3 ± 0.8 | 12.6 ± 0.3
27 | N#C[Se]Cc1ccc([N+](=O)[O-])cc1 [compound 5] | 21.8 ± 2.2 | 28.6 ± 2.4
28 | O=S(=O)(Nc1ccc([Se][Se]c2ccc(NS(=O)(=O)c3cccc4cccnc34)cc2)cc1)c1cccc2cccnc12 [compound 45] | 1.7 ± 0.3 | 14.3 ± 1.1
29 | N#C[Se]Cc1cccc([N+](=O)[O-])c1 [compound 17] | 37.4 ± 2.6 | 81.2 ± 4.8
30 | N#C[Se]Cc1ccc(C#N)cc1 [compound 13] | 1.9 ± 0.7 | 12.8 ± 0.7
31 | O=S(=O)(Nc1ccc([Se][Se]c2ccc(NS(=O)(=O)c3ccc(C(F)(F)F)cc3)cc2)cc1)c1ccc(C(F)(F)F)cc1 [compound 42] | 5.9 ± 0.4 | 36 ± 2.3
